Experimental data: patent US10759797B2, “Pharmaceutically acceptable salt of EGFR inhibitor, crystal form thereof, preparation method therefor and application thereof” (Wuxi Shuangliang Biotechnology Co., Ltd., priority 2017, dated 2020)
≈ marks a conversion by molar mass, not a printed value. Counter-ions that a name gives are not always drawn.

What was measured:
Format in all cases: physicochemical
[1] = Hygroscopicity study of crystal forms (Chinese Pharmacopoeia 2015, part 4, appendix 9103); settings: for Hygroscopicity as compared with that of the EGFR inhibitor present in a free base form: 25° C./RH 80%; for Weight gain over 6 hours (%) / Weight gain over 24 hours (%) / Hygroscopicity: 25° C.±1° C., relative humidity 80%±2%; for Hygroscopicity: Pharmacopoeia class
Procedure: Hygroscopicity comparison study was carried out for various pharmaceutically acceptable salts of EGFR inhibitor present in the form of crystal in Examples 1 to 3 and 5 to 6, the amorphous EGFR inhibitor phosphate salt in Example 4, and the EGFR inhibitor present in a free base form. Tests were conducted according to the method in the Pharmacopoeia of the People's Republic of China, 2015 edition, part 4, appendix 9103 (temperature: 25° C.±1° C., relative humidity: 80%±2%), and the results were as shown in Table 6.
With regard to the description of hygroscopic properties and definition of hygroscopic weight gain, refer to the Pharmacopoeia of the People's Republic of China, 2015 edition, part 4, appendix 9103, experimental guideline of drug hygroscopicity, herein descried by way of example as follows.
Deliquescence: absorb enough water to form a liquid.
Very hygroscopic: hygroscopic weight gain […] 15%.
Hygroscopic: hygroscopic weight gain less than 15% but not less than 2%.
Non- or almost non-hygroscopic: hygroscopic weight gain less than 0.2%.

[2] = Solubility study in water (saturated solutions, HPLC linear equation; Pharmacopoeia and BCS classification); settings: for BCS level (Do): Do=(Mo/Vo)/Cs, Mo 80 mg, Vo about 250 ml, Do≤1 solubility high, Do>1 low; for Solubility in water, 1 h / Solubility in water, 4 h / Solubility in water, 24 h: saturated solution; for Solubility in water, 1 h: standing 1 hour; for Solubility in water, 4 h: standing 4 hours; for Solubility in water, 24 h: standing 24 hours
Description: (§1) Various pharmaceutically acceptable salts of EGFR inhibitor present in form of crystal in Examples 1 to 3 and 5 to 6 were classified with reference to the relevant requirements of the Pharmacopoeia of the People's Republic of China and the Bio-pharmaceutics Classification System (BCS).
(§2) (a) Relevant Requirements of Solubility in the Pharmacopoeia of the People's Republic of China, 2015 Edition, General Notices:
(§3) (b) Relevant Requirements of Solubility in BCS: Do=(Mo/Vo)/Cs;
(§4) wherein Do: dose index; Mo: highest single dose of the drug (with reference to the relevant dose of osimertinib, tentatively set to 80 mg); Vo: the volume of body fluid required for dissolving the drug (about 250 ml); Cs: saturated solubility of the drug;
(§5) if Do≤1, solubility is high; and if Do>1, solubility is low.
(§6) Using an EGFR inhibitor free base as a control, linear regression was carried out by plotting peak area versus concentration, and the corresponding linear equation was obtained in the range of 0.025 to 1.5 mg/ml: A=19775.0411c+2.4256, r=1.0000.
Water was used as solvent. An appropriate amount of the EGFR inhibitor mesylate salt, p-toluenesulfonate salt, phosphate salt, hydrochloride salt and citrate salt prepared in Examples 1 to 3 and 5 to 6 was weighed, and prepared into saturated solutions. Samples were taken after standing for 1 hour, 4 hours, and 24 hours, respectively, and the concentration of each sample in saturation state was calculated according to the linear equation.

[3] = Solubility study in artificial gastric fluid (saturated solutions, HPLC linear equation; Pharmacopoeia and BCS classification); settings: for Pharmacopoeia of the People's Republic of China Solubility level / Solubility in artificial gastric fluid, 1 h / Solubility in artificial gastric fluid, 4 h / Solubility in artificial gastric fluid, 24 h / BCS level (Do): artificial gastric fluid; for Solubility in artificial gastric fluid compared with water: artificial gastric fluid versus water; for Solubility in artificial gastric fluid, 1 h / Solubility in artificial gastric fluid, 4 h / Solubility in artificial gastric fluid, 24 h: saturated solution; for Solubility in artificial gastric fluid, 1 h: standing 1 hour; for Solubility in artificial gastric fluid, 4 h: standing 4 hours; for Solubility in artificial gastric fluid, 24 h: standing 24 hours; for BCS level (Do): Do=(Mo/Vo)/Cs, Mo 80 mg, Vo about 250 ml, Do≤1 solubility high, Do>1 low; for Degradation in the solubility study: water and artificial gastric fluid, up to 24 hours
Description: as §1, §2, §3, §4, §5, §6
Artificial gastric fluid was used as solvent. An appropriate amount of the EGFR inhibitor mesylate salt (crystal form A), p-toluenesulfonate salt (crystal form B), phosphate salt (crystal form C), phosphate salt (amorphous), hydrochloride salt (crystal form C), and citrate salt (crystal form E) prepared in Examples 1 to 6 was weighed, and prepared into saturated solutions. Samples were taken after standing for 1 hour, 4 hours, and 24 hours, respectively, and the concentration of each sample in saturation state was calculated according to the linear equation.

[4] = One month accelerated stability study at 40° C./75% RH (shape, purity, XRPD); settings: for XRPD pattern (0 month versus 1 month) / Appearance, 1 month / Purity (%), 1 month: after 1 month at 40° C./75% RH; for Appearance, 0 month / Purity (%), 0 month: start of study (0 month)
Procedure: The six pharmaceutically acceptable salts of EGFR inhibitor in Examples 1 to 6 were placed in a condition of 40° C./75% RH, and a one month accelerated stability study was carried out. Samples were taken at the end of 0 and 1 month respectively, and emphasis was placed upon the shape, purity and crystal form stability (XRPD pattern) of the samples.
Stable refers to no occurrence of degradation and no detection of transformation to other crystal forms by analytical means such as chromatography and XRPD.

[5] = Solubility study in water (saturated solutions, HPLC linear equation; Pharmacopoeia and BCS classification); settings: in water and artificial gastric fluid
[6] = listed as hydrochloride salt (crystal form D)
[7] = listed as citrate salt (crystal form E)
[8] = listed as p-toluenesulfonate salt (crystal form B)
[9] = listed as mesylate salt (crystal form A)

Row | SMILES | Weight gain over 6 hours (%) [1] | Weight gain over 24 hours (%) [1] | Hygroscopicity [1] | Pharmacopoeia of the People's Republic of China Solubility level [2] | BCS level (Do) [2] | Solubility in water, 1 h [2] | Solubility in water, 4 h [2] | Solubility in water, 24 h [2] | Pharmacopoeia of the People's Republic of China Solubility level [3] | Solubility in artificial gastric fluid compared with water [3] | Solubility in artificial gastric fluid, 1 h [3] | Solubility in artificial gastric fluid, 4 h [3] | Solubility in artificial gastric fluid, 24 h [3] | BCS level (Do) [3] | Degradation in the solubility study [3] | XRPD pattern (0 month versus 1 month) [4] | Solubility with reference to Pharmacopoeia solubility classification [5] | further results
1 | C=CC(=O)Nc1cc(Nc2nccc(-c3cn(C)c4cccnc34)n2)c(OC)cc1N(C)CCN(C)C [hydrochloride salt] | 0.72% | 1.29% | slightly hygroscopic | sparingly soluble | 0.0302 < 1 | 13.43 mg/mL | 11.09 mg/mL | 10.59 mg/mL | soluble | higher solubility in artificial gastric fluid than in water | 83.79 mg/mL | 79.18 mg/mL | 70.03 mg/mL | 0.0046 < 1 | no significant degradation | consistent |  | Hygroscopicity as compared with that of the EGFR inhibitor present in a free base form ([1]; listed as hydrochloride salt crystal form D): lower hygroscopicity; Appearance, 1 month [4, 6]: tan solid; Purity (%), 1 month [4, 6]: 99.3%; Appearance, 0 month [4, 6]: tan solid; Purity (%), 0 month [4, 6]: 99.2%
2 | C=CC(=O)Nc1cc(Nc2nccc(-c3cn(C)c4cccnc34)n2)c(OC)cc1N(C)CCN(C)C [citrate salt] | 2.23% | 2.48% | hygroscopic | freely soluble | 0.0024 < 1 | 143.59 mg/mL | 137.34 mg/mL | 133.57 mg/mL | freely soluble | higher solubility in artificial gastric fluid than in water | 168.51 mg/mL | 196.47 mg/mL | 176.88 mg/mL | 0.0018 < 1 | no significant degradation | consistent | high | Hygroscopicity as compared with that of the EGFR inhibitor present in a free base form ([1]; listed as citrate salt crystal form E): comparable hygroscopicity; Appearance, 1 month [4, 7]: light grey solid; Purity (%), 1 month [4, 7]: 99.1%; Appearance, 0 month [4, 7]: light grey solid; Purity (%), 0 month [4, 7]: 98.9%
3 | C=CC(=O)Nc1cc(Nc2nccc(-c3cn(C)c4cccnc34)n2)c(OC)cc1N(C)CCN(C)C [free base] | 1.7% | 2.2% | hygroscopic |  | 606.30 > 1 | <0.025 mg/mL | <0.025 mg/mL | <0.025 mg/mL |  | higher solubility in artificial gastric fluid than in water | 0.84 mg/mL (≈ 1680 µM) | 0.86 mg/mL (≈ 1720 µM) | 0.71 mg/mL (≈ 1420 µM) | 0.4515 < 1 | no significant degradation |  |  | 
4 | C=CC(=O)Nc1cc(Nc2nccc(-c3cn(C)c4cccnc34)n2)c(OC)cc1N(C)CCN(C)C [p-toluenesulfonate salt] | 0.04% | 0.04% |  | slightly soluble | 0.2057 < 1 | 1.82 mg/mL | 1.78 mg/mL | 1.56 mg/mL | soluble | higher solubility in artificial gastric fluid than in water | 46.21 mg/mL | 46.75 mg/mL | 47.03 mg/mL | 0.0068 < 1 | no significant degradation | consistent |  | Hygroscopicity as compared with that of the EGFR inhibitor present in a free base form ([1]; listed as p-toluenesulfonate salt crystal form B): lower hygroscopicity; Appearance, 1 month [4, 8]: light tan solid; Purity (%), 1 month [4, 8]: 98.7%; Appearance, 0 month [4, 8]: light tan solid; Purity (%), 0 month [4, 8]: 98.7%
5 | C=CC(=O)Nc1cc(Nc2nccc(-c3cn(C)c4cccnc34)n2)c(OC)cc1N(C)CCN(C)C [mesylate salt] | 6.86% | 10.64% | hygroscopic | freely soluble | 0.0013 < 1 | 223.02 mg/mL | 224.00 mg/mL | 255.75 mg/mL | freely soluble | higher solubility in artificial gastric fluid than in water | 248.77 mg/mL | 370.37 mg/mL | 379.12 mg/mL | 0.0008 < 1 | no significant degradation | consistent | high | Hygroscopicity as compared with that of the EGFR inhibitor present in a free base form ([1]; listed as mesylate salt crystal form A): higher hygroscopicity; Appearance, 1 month [4, 9]: light brown solid; Purity (%), 1 month [4, 9]: 99.2%; Appearance, 0 month [4, 9]: light brown solid; Purity (%), 0 month [4, 9]: 99.0%
6 | C=CC(=O)Nc1cc(Nc2nccc(-c3cn(C)c4cccnc34)n2)c(OC)cc1N(C)CCN(C)C [phosphate salt (amorphous)] | 1.2% | 1.5% | slightly hygroscopic | freely soluble | 0.0034 < 1 | 88.32 mg/mL | 92.14 mg/mL | 94.56 mg/mL | freely soluble | higher solubility in artificial gastric fluid than in water | 123.56 mg/mL | 136.76 mg/mL | 138.91 mg/mL | 0.0023 < 1 | no significant degradation | consistent | high | Hygroscopicity as compared with that of the EGFR inhibitor present in a free base form ([1]; listed as amorphous phosphate salt): lower hygroscopicity; Appearance, 1 month [4]: light grey solid; Purity (%), 1 month [4]: 98.7%; Appearance, 0 month [4]: light grey solid; Purity (%), 0 month [4]: 98.9%
